# Data taken from patent US5294618A, “Octahydrobenzisoquinoline derivatives as antipsychotic agents” (Merck Sharp & Dohme Limited, priority 1989, dated 1994).
# Legend:
# sigma recognition site = settings: cited from earlier work
# dopamine D2 receptors = settings: cited from earlier work
# sigma sites = target: T1, sigma sites (Mus musculus, UniProt O55242); experiment: Displacement of tritiated (+)-SKF 10047 sigma ligand in vivo; settings: sc, s.c. dosing, read-out: effective dose for displacing 50% of ligand (ED50)
# T1 construct: displace tritiated sigma ligands in vivo; from tissue; host or cells: sites in the living animal after s.c. dosing
# T1 sequence (O55242 whole entry): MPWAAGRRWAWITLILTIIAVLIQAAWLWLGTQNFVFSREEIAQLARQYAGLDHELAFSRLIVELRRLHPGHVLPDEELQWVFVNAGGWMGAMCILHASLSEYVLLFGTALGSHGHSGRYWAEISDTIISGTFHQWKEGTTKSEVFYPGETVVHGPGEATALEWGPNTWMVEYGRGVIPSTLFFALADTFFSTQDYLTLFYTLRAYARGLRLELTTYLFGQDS
# Procedure: The ability of the test compounds to displace tritiated sigma ligands in vivo was determined by a modification of the method of Ferris et al., Life Sci., 1986, 38, 2329. In these experiments the sigma ligand used was tritiated (+)-SKF 10047.
# [1] = test system: N-methyl-D-aspartate (NMDA) ion-channel complex; settings: cited from earlier work
# [2] = Indian J. Chem., Sect. B, 1979, 17, 239; cited from earlier work
compound,measurement,setting,value
C[C@@H]1CN(CCCn2c3ccccc3c3ccccc32)C[C@H](C)N1 [rimcazole],potency/affinity at sigma sites,sigma recognition site,only moderate potency
same,activity at dopamine D2 receptors,dopamine D2 receptors,essentially inactive
O=C(CCCN1CCC(O)(c2ccc(Cl)cc2)CC1)c1ccc(F)cc1 [haloperidol],relative potency at sigma sites versus D2 receptors,sigma recognition site; sigma sites and D2 receptors,equally potently
"CCCCN1CC[C@H]2c3ccccc3CC[C@@H]2C1 (relative stereo) [Example 2, trans-3-Butyl-1,2,3,4,4a,5,6,10b-octahydrobenz[f]isoquinoline]",ED50,sigma sites,< 1 mg/kg
"C=CCN1CCC2(C)c3cc(O)ccc3CC1C2C (stereo not drawn) [N-allylnormetazocine (SKF 10047), N-allylnormetazocine]",potency/affinity at sigma sites,sigma recognition site,having an affinity
same,interaction with NMDA ion-channel complex,[1],interacts strongly
"O=C(CCCN1CCC2c3ccccc3CCC2C1)c1ccc(F)cc1 (stereo not drawn) [3-[3-(4-fluorobenzoyl)propyl]-1,2,3,4,4a,5,6,10b-octahydrobenz[f]isoquinoline]",CNS depressant activity,[2],weak CNS depressant activity
same,hypotensive activity,[2],significant hypotensive activity
"c1ccc2c(c1)CC[C@@H]1CN(C3CCCCC3)CC[C@@H]21 (relative stereo) [Example 4, trans-3-Cyclohexyl-1,2,3,4,4a,5,6,10b-octahydrobenz[f]isoquinoline]",ED50,sigma sites,< 1 mg/kg
